# How the values were obtained:
# [1] = target: T1, purified resistance-associated esterase (E4) (Myzus persicae, UniProt P35501); test: Esterase interference assay (indirect determination of esterase inhibition); type: biochemical; details: no esterase = 0%, uninhibited E4 = 100%
# T1 construct: 5 g of aphids (stored at −20° C.) were homogenised in 0.02 M phosphate buffer pH 7.0; from tissue; host or cells: whole Myzus persicae aphids, clone 794JZ; homogenate purified over G-25 and DEAE Sepharose Fast Flow
# T1 sequence (P35501 24-552): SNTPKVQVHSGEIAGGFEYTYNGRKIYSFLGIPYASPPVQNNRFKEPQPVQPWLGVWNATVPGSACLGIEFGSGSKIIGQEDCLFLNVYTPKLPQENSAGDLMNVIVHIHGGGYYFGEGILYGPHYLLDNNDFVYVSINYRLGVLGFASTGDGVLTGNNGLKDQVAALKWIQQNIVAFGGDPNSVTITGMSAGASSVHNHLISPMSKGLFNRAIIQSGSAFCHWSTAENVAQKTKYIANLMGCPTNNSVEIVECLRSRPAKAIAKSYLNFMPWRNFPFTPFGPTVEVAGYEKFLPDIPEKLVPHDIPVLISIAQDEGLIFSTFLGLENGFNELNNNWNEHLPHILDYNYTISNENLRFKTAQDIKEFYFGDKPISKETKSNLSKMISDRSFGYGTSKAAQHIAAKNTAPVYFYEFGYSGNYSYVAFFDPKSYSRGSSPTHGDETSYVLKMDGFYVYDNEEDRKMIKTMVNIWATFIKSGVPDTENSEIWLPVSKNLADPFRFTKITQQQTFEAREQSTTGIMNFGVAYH
# Description: Measuring the in vitro inhibition is not straight forward, as synergists may bind to a site other than the active site.
# The esterase used was the well-characterised resistance associated esterase purified from M. persicae, E4, (aphid clone: 794JZ) as per Devonshire (1977) with some modifications(Devonshire A L, The properties of a carboxylesterase from the peach-potato aphid, Myzus persicae (Sulz.) and its role in conferring insecticide resistance. Biochem J 167: 675-683 (1977)). Briefly, 5 g of aphids (stored at −20° C.) were homogenised in 0.02 M phosphate buffer pH 7.0 and centrifuged at 20 000 g for 10 min. The supernatant was passed through a G-25 column using 0.02M Tris/HCl, pH 8.5 buffer. Unretarded fractions containing esterase activity were further chromatographed through DEAF Sepharose Fast Flow (Amersham Biosciences) and eluted with a linear 0-0.35 M NaCl gradient in 500 ml of Tris/HCl as above. Fractions containing carboxylesterase activity in the form of E4 were concentrated, desalted, and buffer exchanged to 0.02 M phosphate pH 7.0 for storage.
# Interactions of the purified resistance-associated esterase (E4) with Compound of Example 2, Compound of Example 3, Compound of Example 4, Compound of Example 9 and Compound of Example 11 were performed using the ‘esterase interference assay’, as described by Khot et al., with some modifications. Devonshire A L, The properties of a carboxylesterase from the peach-potato aphid, Myzus persicae (Sulz.) and its role in conferring insecticide resistance. Biochem J 167: 675-683 (1977)). Briefly, stock solutions of novel synergists (3 mM in acetone) were pre-incubated with pure E4, to give a final concentration of 0.03 mM, for 16 h at 4° C. Aliquots (15 μl ) of E4, E4+Compound of Example 2, E4+Compound of Example 3, E4+Compound of Example 4, E4+Compound of Example 9 and E4+Compound of Example 11 were incubated for 1 h with 60 μl of serial dilutions of azamethiphos in 0.02M phosphate buffer, pH 7, in separate wells of a NUNC microplate. Aliquots (25 p1) of house fly head homogenate (source of AChE) were added to each well and incubated for 15 minutes at room temperature. E4 in acetone and buffer only served as the positive and the negative controls respectively. AChE activity was measured at 405 nm using a Tmax kinetic microplate reader (Molecular Devices, Menlo Park, Calif.). Readings were taken automatically for 10 min at 10 s intervals. The rate (mOD min^−1) was calculated by the integrated software, Softmax Pro 4.6. All treatments were performed in triplicate.
# No added esterase is giving 0% esterase protection and uninhibited esterase (E4) is giving 100% protection.
# The materials and procedure as stated in Example 13, paragraphs 13.1, 13.1.2, 13.1.2.1 and 13.1.2.2. have been used and the following results have been obtained: […]
# [2] = tested on: pollen beetle, Meligethes aeneus; test: Discriminating dose bioassay: α-cypermethrin in mixture with synergist; type: in vivo; details: for % Mortality: 24 h
# Procedure: Two pyrethroid resistant populations originating from two different areas in Poland ‘Rogalin'and lebork’ were collected in July 2008. A putative susceptible population, UK population, was also collected in July 2008 in Hertfordshire, UK. All populations were collected from oilseed rape contained adults only and were kept at room temperature before assays were performed.
# Bioassays incorporating the compounds (Compound of Example 2 and Compound of Example 3) dissolved in acetone, were carried out using a diagnostic concentration of α-cypermethrin derived from the above full dose response bioassays in a mixture of 0.01 g L^−1 of the compounds. The concentration of α-cypermethrin used for the discriminating dose bioassays was 0.3 ppm α-cypermethrin for the two polish populations, Rogalin and Lebork and 0.03 ppm α-cypermethrin for UK population. Vials treated with the compounds only, dissolved in acetone and acetone only were used as controls. Ten to 15 replicates were used for each treatment depending on insect numbers within the population. Compounds concentrations chosen conferred no mortality in preliminary bioassays.
# Treated vials including the pollen beetles were stored in constant environment facilities at 18±2° C. and 16L: 8D. All bioassays were scored at an endpoint of 24 h after exposure to the insecticide. Insects incapable of coordinated movement (after gentle touching with a pencil brush if necessary) were scored as dead.
# [3] = tested on: P450 enzymes (oxidases) of pollen beetle homogenate; test: Oxidase assay: 7-ethoxycoumarin O-deethylation inhibition in pollen beetle homogenate; type: biochemical, Meligethes aeneus; details: 3 μl of 10 mM compound, enzyme plus acetone = 100
# Procedure: The ability of the novel compositions comprising the synergists of Formula (I) to inhibit P450 enzymes, a major mechanism conferring resistance to xenobiotics, was measured using pollen beetle homogenate.
# Approximately 50 non-sexed adult pollen beetle from each population were homogenised on ice in 1 ml 0.1 M sodium phosphate buffer, pH 7.6, containing, 1 mM EDTA, 1 mM DTT, 1 mM PTU, 1 mM PMSF and centrifuged at 10 000×g for 10 min. The resulting supernatant was used as the enzyme source.
# The O-deethylation inhibition by compounds of Example 2 or 3 was measured using 7-ethoxycoumarin (7-EC) according to Ullrich and Weber (Ullrich V and Weber P, The O-dealkylation of 7-ethoxycoumarin by liver microsomes. Z Physiol Chem 353: 1171-1177 (1972)) and adapted to the microplate format as described by DeSousa (De Sousa G, Cuany A, Brun A, Amichot M, Rahmani R, Berge J B, A microfluorometric method for measuring ethoxycoumarin-O-deethylase activity on individual Drosophila melanogaster abdomens: interest for screening resistance in insect populations Analyt. Biochem 229: 86-91 (1995)). Briefly, 7-EC was dissolved in ethanol to make a 20 mM stock solution and diluted by the addition of 0.1 M, pH 7.8 sodium phosphate buffer to give a concentration of 0.5 mM. Fifty microliters of pollen beetle enzyme were added to separate wells of a microplate, followed by the addition of 3 μl 10 mM of either compounds of Example 2 or 3 or acetone only. After 10 min incubation in room temperature, 80 μl 0.5 mM 7-EC was added following by another 5 min at 30° C. The reaction initiated by the addition of 10 μl 9.6 mM NADPH in 0.1 M sodium phosphate, pH 7.8. Enzyme activity was measured in a Victor^2 1420 multilabel counter (Wallac, Milton Keynes, UK) for 60 min with readings taken every 5 min, using an excitation wavelength of 370 nm and an emission wavelength of 460 nm. All assays were performed in triplicate.
# The ability of the composition comprising the compounds of Examples 2 and 3 to inhibit oxidases derived from the 3 different pollen beetle populations is presented in Table 7.
smiles,measurement,setting,value
"CC#CCOc1ccc2c(c1)OCO2 [Example 2, 5-(but-2-ynyloxy)-benzo[1.3]dioxole]",Esterase protection (%) after pre-incubation with compound,"[1]; Table 2 (Example 13), 0.03 mM compound pre-incubated with E4 16 h at 4° C.",10.36%
same,Esterase protection (%) after pre-incubation with compound,"[1]; second 'TABLE 3' (Example 16), procedure as Example 13",10.35%
same,% Mortality,"[2]; Lebork, 0.3 ppm α-cypermethrin in mixture with 0.01 g L^−1 synergist",85.21%
same,Mortality,"[2]; Rogalin and Lebork, 0.3 ppm α-cypermethrin in mixture with 0.01 g L^−1 synergist",around 85%
same,% Mortality,"[2]; Rogalin, 0.3 ppm α-cypermethrin in mixture with 0.01 g L^−1 synergist",80.56%
same,% Mortality,"[2]; UK population, 0.03 ppm α-cypermethrin in mixture with 0.01 g L^−1 synergist",71.68%
same,Mortality with the compound only,"[2]; synergist only, without α-cypermethrin (data not shown)",No mortality
same,Inhibition of 7-ethoxycoumarin O-deethylation (%),[3]; Lebork homogenate,−38.98%
same,Inhibition of 7-ethoxycoumarin O-deethylation (%),[3]; Rogalin homogenate,−11.25%
same,Inhibition of 7-ethoxycoumarin O-deethylation (%),[3]; UK population homogenate,−9.3%
